Measurements from paper PMC7307922 (Journal of Medicinal Chemistry, 2020).

What was measured:
in vivo = details: male, BALB/c, mouse
Protocol: The study was performed by Bienta (www.bienta.net). Study design, animal selection, handling, and treatment were all in accordance with the Enamine PK study protocols and Institutional Animal Care and Use Guidelines. Animal treatment and plasma samples preparation were conducted by the Animal Laboratory personnel at Enamine/Bienta. […] The animals were randomly assigned to the treatment groups before the pharmacokinetic study; all animals were fasted for 4 h before dosing. […] Each of the time point treatment group included four animals. There was also a control group of two animals. […] Dosing volumes of compounds or vehicle was 5 mL/kg. Mice were injected iv with 2,2,2-tribromoethanol at the dose of 150 mg/kg prior to drawing the blood. Blood collection was performed from the orbital sinus in microtainers containing K2EDTA. Animals were sacrificed by cervical dislocation after the blood sample collection. All samples were immediately processed, flash-frozen, and stored at −70 °C until subsequent analysis. […] After mixing by pipetting and centrifuging for 4 min at 6000 rpm, 0.5–1 μL of each supernatant was analyzed by HPLC-MS/MS on an API 3000 PE instrument.

rFFA3 = molecular target: T1, rFFA3 (Rattus norvegicus, UniProt B2GV46); test: cAMP assay, rFFA3; assay type: cell-based
T1 construct: expressed in transfected cells; host or cells: HEK293 Flp-In T-REx, doxycycline-induced
T1 sequence (B2GV46 1-319): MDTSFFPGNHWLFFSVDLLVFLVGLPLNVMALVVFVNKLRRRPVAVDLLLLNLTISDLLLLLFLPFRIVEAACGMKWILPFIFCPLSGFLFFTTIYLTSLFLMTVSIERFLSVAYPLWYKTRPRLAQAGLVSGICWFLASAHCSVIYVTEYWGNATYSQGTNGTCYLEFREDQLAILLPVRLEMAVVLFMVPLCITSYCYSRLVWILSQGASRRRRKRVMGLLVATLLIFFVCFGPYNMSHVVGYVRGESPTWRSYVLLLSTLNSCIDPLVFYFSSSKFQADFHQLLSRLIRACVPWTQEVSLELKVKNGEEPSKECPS
Protocol: With several compounds with improved properties in hand, we wished to investigate the suitability of the compounds as tools for in vivo studies in rodents. Because of the moderate potency and low solubility associated with this series, it has been presumed that they are poorly suited as in vivo tools.
HEK293 Flp-In T-Rex cells stably transfected with FFA3-eYFP receptors were incubated overnight with doxycycline to induce expression, then harvested, and cryopreserved. On the day of each experiment, cells were thawed and resuspended in stimulation buffer. Assays were carried out using a 384-well plate format with 3000 cells/well using the CisBio cAMP GS dynamic kit as per manufacturer’s protocol. Compounds were tested for the ability to inhibit 0.3 μM forskolin-induced cAMP production after co-incubation for 1 h. Reactions were measured using a PHERAstar FS plate reader (BMGLabtech, Aylesbury, UK).

human GPR84 = human GPR84 (Homo sapiens, UniProt Q9NQS5); test: GPR84 counterscreen, cAMP assay; assay type: cell-based; details: 10 μM
Sequence of human GPR84 (Q9NQS5 whole entry): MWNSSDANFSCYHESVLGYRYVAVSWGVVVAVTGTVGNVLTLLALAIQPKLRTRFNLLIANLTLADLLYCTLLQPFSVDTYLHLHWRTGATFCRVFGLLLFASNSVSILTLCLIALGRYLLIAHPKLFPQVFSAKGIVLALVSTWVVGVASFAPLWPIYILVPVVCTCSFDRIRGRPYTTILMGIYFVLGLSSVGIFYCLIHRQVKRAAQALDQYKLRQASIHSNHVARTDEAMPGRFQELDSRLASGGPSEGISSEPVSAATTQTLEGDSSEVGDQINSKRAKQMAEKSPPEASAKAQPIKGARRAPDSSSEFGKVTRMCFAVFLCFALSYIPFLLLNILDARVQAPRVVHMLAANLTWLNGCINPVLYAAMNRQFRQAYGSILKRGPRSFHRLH
Protocol: Counter screening against FFA1, FFA2 , FF A4 and GPR84 […]
(100 ng/mL) overnight to induce receptor expressi on. […]
Counter screening for GPR84 was carried out using a cAMP assay. Flp -In T-Re x 293 cells generated to stably express human GPR84 tagged at is C-terminal with Gia were first treated with doxycycline […]
HT R-FRET cAMP assay (CisBio) according to the manufacturer’s protocol and measured using an Envision plate reader (PerkinElmer). For these experiments, 5000 cells were used per well in a low volume 384-well plate and compounds were tested against their ability to inhibit the cAMP response to 1 µM forskolin for 45 min. TUG-1985 was used as reference agonist. […]

[1] = molecular target: T2, Cav1.2 (L-type) Human Calcium Ion Channel (Homo sapiens, UniProt Q13936); test: Cav1.2 (L-type) calcium ion channel binding assay, Panlabs; details: 10 μM
T2 construct: Panlabs
T2 sequence (Q13936 whole entry): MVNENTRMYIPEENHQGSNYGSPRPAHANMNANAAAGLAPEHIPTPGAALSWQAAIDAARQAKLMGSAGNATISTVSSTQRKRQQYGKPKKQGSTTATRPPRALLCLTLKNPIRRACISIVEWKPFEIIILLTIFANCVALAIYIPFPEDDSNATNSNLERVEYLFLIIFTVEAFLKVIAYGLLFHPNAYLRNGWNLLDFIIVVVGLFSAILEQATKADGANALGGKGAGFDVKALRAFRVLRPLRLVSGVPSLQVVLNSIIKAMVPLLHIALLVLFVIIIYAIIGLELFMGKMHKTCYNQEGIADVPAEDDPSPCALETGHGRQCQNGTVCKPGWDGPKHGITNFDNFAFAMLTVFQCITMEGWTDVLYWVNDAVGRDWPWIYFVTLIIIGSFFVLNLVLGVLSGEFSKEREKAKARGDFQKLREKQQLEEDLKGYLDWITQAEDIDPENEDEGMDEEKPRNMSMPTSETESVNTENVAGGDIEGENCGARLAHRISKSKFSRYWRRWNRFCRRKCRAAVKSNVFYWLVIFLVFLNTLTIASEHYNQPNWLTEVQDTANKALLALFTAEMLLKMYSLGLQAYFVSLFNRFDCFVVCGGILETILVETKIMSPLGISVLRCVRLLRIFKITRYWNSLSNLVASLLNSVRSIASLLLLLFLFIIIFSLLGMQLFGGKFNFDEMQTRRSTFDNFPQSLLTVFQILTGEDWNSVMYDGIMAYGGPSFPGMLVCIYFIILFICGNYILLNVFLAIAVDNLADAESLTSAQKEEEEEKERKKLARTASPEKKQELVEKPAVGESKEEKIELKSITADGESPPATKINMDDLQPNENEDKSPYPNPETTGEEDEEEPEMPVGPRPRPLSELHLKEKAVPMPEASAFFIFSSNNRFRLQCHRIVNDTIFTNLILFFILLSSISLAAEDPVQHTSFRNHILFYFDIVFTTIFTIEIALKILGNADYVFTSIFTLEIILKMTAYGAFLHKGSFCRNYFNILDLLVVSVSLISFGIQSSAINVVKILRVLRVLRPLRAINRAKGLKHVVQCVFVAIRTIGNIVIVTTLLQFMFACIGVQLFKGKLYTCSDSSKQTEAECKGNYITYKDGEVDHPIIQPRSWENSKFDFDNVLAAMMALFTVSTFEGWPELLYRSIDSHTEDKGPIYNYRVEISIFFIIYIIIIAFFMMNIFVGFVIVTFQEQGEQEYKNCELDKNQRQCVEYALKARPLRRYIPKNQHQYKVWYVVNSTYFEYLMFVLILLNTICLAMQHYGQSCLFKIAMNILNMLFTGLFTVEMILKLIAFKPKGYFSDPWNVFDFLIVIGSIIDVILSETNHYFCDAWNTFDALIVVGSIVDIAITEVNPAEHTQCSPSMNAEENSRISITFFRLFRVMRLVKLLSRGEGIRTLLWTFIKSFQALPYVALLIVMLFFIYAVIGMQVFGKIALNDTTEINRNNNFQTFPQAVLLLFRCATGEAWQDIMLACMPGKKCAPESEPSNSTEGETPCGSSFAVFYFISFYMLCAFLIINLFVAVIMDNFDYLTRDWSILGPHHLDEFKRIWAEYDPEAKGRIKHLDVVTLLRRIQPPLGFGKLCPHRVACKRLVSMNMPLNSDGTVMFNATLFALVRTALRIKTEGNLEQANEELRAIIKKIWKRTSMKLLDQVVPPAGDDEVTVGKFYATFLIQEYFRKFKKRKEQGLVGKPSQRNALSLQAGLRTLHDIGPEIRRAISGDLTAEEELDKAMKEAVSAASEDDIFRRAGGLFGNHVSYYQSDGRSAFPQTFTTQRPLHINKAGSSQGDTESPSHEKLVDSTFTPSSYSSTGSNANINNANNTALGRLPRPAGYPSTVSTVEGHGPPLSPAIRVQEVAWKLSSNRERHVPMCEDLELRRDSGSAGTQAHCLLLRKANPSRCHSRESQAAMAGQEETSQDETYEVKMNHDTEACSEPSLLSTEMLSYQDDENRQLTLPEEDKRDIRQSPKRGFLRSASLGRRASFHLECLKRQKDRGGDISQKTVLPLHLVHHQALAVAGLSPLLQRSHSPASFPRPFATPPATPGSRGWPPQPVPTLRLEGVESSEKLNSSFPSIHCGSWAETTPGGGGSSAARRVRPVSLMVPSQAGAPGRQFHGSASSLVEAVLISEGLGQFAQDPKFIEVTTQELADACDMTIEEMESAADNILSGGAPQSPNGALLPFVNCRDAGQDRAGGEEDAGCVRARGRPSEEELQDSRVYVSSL
T2 sequence (Q08289 whole entry partner): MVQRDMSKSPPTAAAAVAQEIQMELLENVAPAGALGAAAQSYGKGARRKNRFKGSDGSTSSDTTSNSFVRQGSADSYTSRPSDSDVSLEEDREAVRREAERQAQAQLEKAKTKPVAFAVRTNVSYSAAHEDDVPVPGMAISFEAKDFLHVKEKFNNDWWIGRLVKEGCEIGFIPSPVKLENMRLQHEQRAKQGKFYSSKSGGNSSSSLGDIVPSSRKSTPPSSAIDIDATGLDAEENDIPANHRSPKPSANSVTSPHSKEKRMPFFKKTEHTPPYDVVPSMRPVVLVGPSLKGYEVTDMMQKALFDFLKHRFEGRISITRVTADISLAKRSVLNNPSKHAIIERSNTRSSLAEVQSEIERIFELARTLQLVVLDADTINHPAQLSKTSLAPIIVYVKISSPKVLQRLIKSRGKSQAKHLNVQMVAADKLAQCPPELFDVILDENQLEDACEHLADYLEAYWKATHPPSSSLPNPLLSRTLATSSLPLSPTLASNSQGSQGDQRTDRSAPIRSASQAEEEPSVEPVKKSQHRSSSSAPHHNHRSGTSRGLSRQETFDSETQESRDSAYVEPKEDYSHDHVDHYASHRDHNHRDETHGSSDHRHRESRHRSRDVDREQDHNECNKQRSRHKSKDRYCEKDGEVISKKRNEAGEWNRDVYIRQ
T2 sequence (P54289 25-946 partner limits assumed): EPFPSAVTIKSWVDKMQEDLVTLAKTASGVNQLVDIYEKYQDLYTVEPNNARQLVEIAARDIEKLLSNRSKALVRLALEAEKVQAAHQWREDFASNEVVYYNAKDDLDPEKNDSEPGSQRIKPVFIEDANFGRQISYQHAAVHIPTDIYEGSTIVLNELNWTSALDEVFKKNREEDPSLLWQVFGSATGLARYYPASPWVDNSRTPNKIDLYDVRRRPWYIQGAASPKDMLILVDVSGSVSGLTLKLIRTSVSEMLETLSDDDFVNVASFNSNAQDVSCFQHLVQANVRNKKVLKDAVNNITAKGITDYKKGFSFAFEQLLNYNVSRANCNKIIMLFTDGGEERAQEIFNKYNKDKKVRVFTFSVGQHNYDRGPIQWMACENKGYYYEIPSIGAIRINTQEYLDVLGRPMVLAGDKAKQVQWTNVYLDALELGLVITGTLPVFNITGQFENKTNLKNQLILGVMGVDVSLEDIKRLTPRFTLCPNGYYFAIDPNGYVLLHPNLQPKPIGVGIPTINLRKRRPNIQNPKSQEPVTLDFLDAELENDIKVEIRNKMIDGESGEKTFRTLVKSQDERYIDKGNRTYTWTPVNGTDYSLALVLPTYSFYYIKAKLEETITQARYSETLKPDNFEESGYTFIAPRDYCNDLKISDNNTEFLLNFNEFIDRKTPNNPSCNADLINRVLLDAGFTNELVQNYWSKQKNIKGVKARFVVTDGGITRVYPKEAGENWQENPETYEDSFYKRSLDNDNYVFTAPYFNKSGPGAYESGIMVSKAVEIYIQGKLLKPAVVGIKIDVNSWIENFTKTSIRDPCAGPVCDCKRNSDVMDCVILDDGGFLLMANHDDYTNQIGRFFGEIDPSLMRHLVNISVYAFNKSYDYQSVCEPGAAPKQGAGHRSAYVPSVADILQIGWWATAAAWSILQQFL
T2 sequence (P54289 947-1103 partner limits assumed): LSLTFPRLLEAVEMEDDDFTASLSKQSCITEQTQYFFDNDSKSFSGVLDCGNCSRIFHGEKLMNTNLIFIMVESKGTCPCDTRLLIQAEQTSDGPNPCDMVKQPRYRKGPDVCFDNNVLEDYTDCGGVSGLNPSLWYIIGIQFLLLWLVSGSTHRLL
Protocol: Counterscreen data on 1, 16, 57 and 63
Cav1.2 (L-type) Human Calcium Ion Channel Binding -20% 13% 12% 1%
(Antagonist Radioligand) Assay, Panlabs, 10 µM

human FFA4 = molecular target: T3, human FFA4 (Homo sapiens, UniProt Q5NUL3); test: FFA4 counterscreen, arrestin BRET assay; assay type: cell-based; details: 10 μM
T3 construct: expressed in transfected cells; host or cells: HEK293T, transient co-transfection
T3 sequence (Q5NUL3 1-361): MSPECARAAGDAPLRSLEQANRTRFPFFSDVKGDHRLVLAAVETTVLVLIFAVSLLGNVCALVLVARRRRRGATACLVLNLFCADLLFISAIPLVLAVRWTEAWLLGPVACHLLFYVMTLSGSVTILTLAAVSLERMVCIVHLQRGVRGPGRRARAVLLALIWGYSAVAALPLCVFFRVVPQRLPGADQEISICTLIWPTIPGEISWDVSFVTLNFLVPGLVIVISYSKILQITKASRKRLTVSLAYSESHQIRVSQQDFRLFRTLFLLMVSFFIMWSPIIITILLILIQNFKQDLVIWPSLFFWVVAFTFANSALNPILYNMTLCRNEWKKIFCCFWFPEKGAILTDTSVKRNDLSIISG
Protocol: Counter screening against FFA1, FFA2 , FF A4 and GPR84
Counter screening against FFA1 and FFA4 was carried out using a modified version of a previously described bioluminescence resonance energy transfer (BRET) designed to assess recruitment of b-ar r estin-2 to each receptor.2 Briefly, HEK293T cells were co-transfected with plasmids en coding either human FFA1 or human FFA4 tagged at their C -termini with eYFP and with a plasmid encoding b-ar r estin-2 tagged at its N-terminal with Nanoluciferase. 24 h post transfection cells were seeded into black with clear bottom 96-well plates that had been coated with poly-D-lysine. Cells were then cultured a further 24 h prior to experiments. Cells were then washed twice with Hank’s Balanced salt solution supplemented with 10 mM HEPES (HBSSH) then incubated at 37 °C in HBSSH for 30 min prior to running the assay. The Nluc substrate, coelenterazine h was then added to a f inal concentration of 5 µM and cells were incubated at 37 °C for 10 min prior to adding test agonists. Following a further 5 min incubation, luminescent emission at 475 nm and 535 nm was measured using a Pherastar FS reader (BMG Labtech, Aylesbury, UK) pla te reader set for bottom plate optics. The BRET ratio was then calculated as 535/475 emissions and all BRET ratio values were normalized against the maxima l BRET ratio obtained using reference agonists for the respective receptors (TUG -891 for FFA4, TUG-770 for FFA1). For antagonism studies, the same protocol was used, however the antagonist was added 15 min prior to the addition of an EC 80 concentration of the reference agonist for each receptor. […]

| Structure (SMILES) | Vd at 24 h (in vivo; iv, 5 mg/kg) [L/kg] | clearance at 24 h (in vivo; iv, 5 mg/kg) [mL/min/kg] | half-life at 24 h (in vivo; iv, 5 mg/kg) [min] | AUC(0-inf) at 24 h (in vivo; po, 10 mg/kg) [ng·h/mL] | Cmax at 24 h (in vivo; po, 10 mg/kg) [ng/mL] | Tmax at 24 h (in vivo; po, 10 mg/kg) [min] | bioavailability at 24 h (in vivo; po, 10 mg/kg) [%] | half-life at 24 h (in vivo; po, 10 mg/kg) [min] | cAMP pEC50 (rFFA3) (rFFA3) | GPR84, agonist, cAMP assay (human GPR84) [%] | activity at GPR84 (human GPR84) | Cav1.2 (L-type) binding (antagonist radioligand) [1] [%] | activity at L-type calcium ion channels [1] | activity at FFA4 (human FFA4) | half-life (in vivo; iv, 5 mg/kg) [min] |
| --- | --- | --- | --- | --- | --- | --- | --- | --- | --- | --- | --- | --- | --- | --- | --- |
| CC1=C(C(=O)Nc2ccccc2C)C(c2ccco2)C2=C(CCCC2=O)N1 (centres unmarked) [Compound 1, 4-(Furan-2-yl)-2-methyl-5-oxo-N-(o-tolyl)-1,4,5,6,7,8-hexahydroquinoline-3-carboxamide, reference compound] | 0.759 | 8.45 | 62.2 | 14400 | 7470 | 15 | 73 | 89.7 | 5.87 ± 0.07 | 1±7 | No significant activity | -20 | No significant activity | No significant activity | – |
| CC1=C(C(=O)Nc2cc(Cl)ccc2Cl)C(C2CCCC2)C2=C(CCCC2=O)N1 (centres unmarked) [Compound 63, 4-Cyclopentyl-N-(2,5-dichlorophenyl)-2-methyl-5-oxo-1,4,5,6,7,8-hexahydroquinoline-3-carboxamide] | 1.11 | 20.3 | 37.8 | 5420 | 3800 | 15 | 66 | 51.8 | 6.39 ± 0.03 | 0±1 | No significant activity | 1 | No significant activity | No significant activity | – |
| CC1=C(C(=O)Nc2cc(Cl)ccc2Cl)C(c2ccco2)C2=C(CCCC2=O)N1 (centres unmarked) [Compound 16, reference compound] | 0.629 | 19.6 | 22.3 | 7050 | 5740 | 30 | 88 | 60.8 | 6.34 ± 0.04 | 2±4 | No significant activity | 13 | No significant activity | No significant activity | 20 |
| CCCC1C(C(=O)Nc2cc(Cl)ccc2Cl)=C(C)NC2=C1C(=O)CCC2 (centres unmarked) [Compound 57, N-(2,5-Dichlorophenyl)-2-methyl-5-oxo-4-propyl-1,4,5,6,7,8-hexahydroquinoline-3-carboxamide] | 1.15 | 70.3 | 11.4 | 563 | 561 | 30 | 36 | 63.5 | – | 1±4 | No significant activity | 12 | No significant activity | No significant activity | – |
